Tests used:
[1] = In-vivo testing for regulation of triglycerides in blood, obese mice on high fat diet (study V); parameters: species or system male mice B6 Lep ob/ob; conditions: 30 mg/kg/day po, 14 days
Text: The study was done using six weeks old male mice B6 Lep ob/ob, obtained from Charles River (France). Mice were divided in 3 groups : I (control), II (vehicle), III (example 0).
The animals of the group I received the standard diet (D-12450B, Research Diets, NJ, USA).
The animals of the groups II and III were fed with a High Fat Diet (D-12492, Research Diets, NJ, USA), in both cases for 7 weeks (References 1 and 2).
The animals of the groups III were fed with a High Fat Diet (D-12492, Research Diets, NJ, USA), in both cases for 7 weeks (References 1 and 2).
At the end of the feeding period of 7 weeks, it was started the treatment period (14 days): Group II mice received the vehicle (10 ml/kg/day, po, of the aqueous solution of acacia gum, 5% W/V). Group III was administered with 30 mg/kg/day, po, of the inventive compound 5-(4-chlorophenyl)-1-(2,4-dichlorophenyl)-4,5-dihydro-pyrazole-3-carboxylic acid according to Example 0. Group I didn't received any treatment. The three groups of mice had the same diet than in the previous period.
At the end of the 14 days period of treatment, the blood levels of triglicerides of the animals were determined. […]

[2] = In-vivo testing for regulation of triglycerides in blood, diet-induced obese mice (study VI); conditions: high fat diet, 30 mg/kg/day p.o., day 28 after beginning of the treatment; p<0.005 vs. vehicle
Protocol: In a second set of experiments carried out similar to the tests shown above the TG (triglyceride) levels of diet-induced obese mice in blood were determined. Mice receiving a high fat diet were - after a feeding period of […] - either treated p.o. with vehicle (0,5 % HPMC) or with the compound according to example 0 (30 mg/kg/day p.o.). TG levels in blood were determined on day 28 after beginning of the treatment.

cannabinoid receptors [3] = experiment: Mouse tetrad model, antagonistic effect against Win 55212-2; type: in vivo, Male NMRI mice; conditions: 5 mg/kg i.v. prior to Win 55212-2 in a dose of 1,25mg/kg i.v.
Text: (§1) Substances with affinity for cannabinoid receptors are known to produce a wide range of pharmacological effects. It is also known that intravenous administration of a substance with affinity for cannabinoid receptors in mice produces analgesia , hypothermia, sedation and catalepsy. Individually, none of these effects can be considered as proof that a tested substance has affinity for cannabinoid-receptors, since all of these effects are common for various classes of centrally active agents. However, substances, which show all of these effects, i.e. substances that are active in this so-called tetrad model are considered to have affinity for the cannabinoid receptors. It has further been shown that cannabinoid receptor antagonists are higly effective in blocking the effects of a cannabinoid agonist in the mouse tetrad model.
(§2) The tetrad model is described, for example, in the publication of A. C. Howlett et al, International Union of Pharmacology XXVII. Classification of Cannabinoid Receptors, Pharmacol Rev 54, 161-202 , 2002 and David R. Compton et al., "In-vivo Characterization of a Specific Cannabinoid Receptor Antagonist (SR141716A) :Inhibition of Tetrahydrocannbinol- induced Responses and Apparent Agonist Activity", J. Pharmacol. Exp. Ther. 277 , 2, 586-594, 1996. The corresponding parts of the description are hereby incorporated by reference.
(§3) Male NMRI mice with a weight of 20-30 g (Harlan, Barcelona, Spain) are used in all of the following experiments.
(§4) Before testing in the behavioral procedures given below, mice are acclimatized to the experimental setting. Pre-Treatment control values are determined for analgesia hot plate latency (in seconds), rectal temperature, sedation and catalepsy.
(§5) In order to determine the agonistic activty of the substance to be tested, the mice are injected intravenously with the substance to be tested or the vehicle alone. 15 minutes after injection, latency in hot plate analgesia is measured.
(§6) Rectal temperature, sedation and catalepsy are measured 20 minutes after injection.
In order to determine the antagonistic activity the identical procedure is used as for the determination of the agonistic effects, but with the difference that the substance to be evaluated for its antagonistic activity is injectected 5 minutes before the intravenous injection of 1.25 mg/kg Win-55,212 a known cannabinoid-receptor agonist.
(§7) The hot plate analgesia is determined according to the method described in Woolfe D. et al. "The evaluation of analgesic action of pethidine hydrochloride (Demerol)", J. Pharmacol. Exp. Ther. 80, 300-307,1944. The respective description is hereby incorporated by reference and forms part of the present disclosure.
(§8) The mice are placed on a hot plate (Harvard Analgesimeter) at 55 ± 0.5 °C until they show a painful sensation by licking their paws or jumping and the time for these sensations to occur is recorded. This reading is considered the basal value (B). The maximum time limit the mice are allowed to remain on the hot plate in absence of any painful response is 40 seconds in order to prevent skin damage. This period is called the cut-off time (PC).
(§9) Fifteen minuts after the administration of the substance to be tested, the mice are again placed on the hot plate and the afore described procedure is repeated. This period is called the post-treatment reading (PT).
(§10) The degree of analgesia is calculated from the formula : %MPEof Analgesia = (PT−B)/(PC−B) × 100 [formula] MPE = Maximum possible effect.
(§11) Sedation and ataxia is determined according to the method described in Desmet L. K. C. et al. "Anticonvulsive properties of Cinarizine and Flunarizine in Rats and Mice", Arzneim. -Forsch. (Frug Res) 25, 9, 1975. The respective description is hereby incorporated by reference and forms part of the present disclosure.
The chosen scoring system is • 0: no ataxia; • 1: doubful; • 2: obvious calmness and quiet; • 3 pronounced ataxia; • prior to as well as after treatment. […]

[4] = molecular target: T1, transfected human CB2 receptors (Homo sapiens, UniProt P34972); experiment: In-vitro determination of affinity to CB2 receptor (radioligand [3H]-CP55940); type: binding
T1 construct: purchased Receptor Biology, Inc
Protocol: (§12) I. In-vitro determination of affinity to CB1/CB2-Receptors
(§13) The in-vitro determination of the affinity of the inventive substituted pyrazoline compounds to CB1/CB2-Rezeptors is carried out as described in the publication of Ruth A. Ross, Heather C. Brockie et al., "Agonist-inverse agonist characterization at CB1 and CB2 cannabinoid receptors of L-759633, L759656 and AM630", British Journal of Pharmacology, 126, 665-672, (1999), whereby the transfected human CB1 and CB2 receptors of Receptor Biology, Inc. are used. The radioligand used for both receptors is [^3H]-CP55940. The respective parts of the description is hereby incorporated by reference and forms part of the present disclosure.

cannabinoid receptors [5] = experiment: Mouse tetrad model, agonistic effect; type: in vivo, Male NMRI mice; parameters: key to Agonistic effect D: Sedation: % of sedation = mean score (0–3 scale)/3 × 100; conditions: 5 mg/kg i.v.
Text: as §1, §2, §3, §4, §5, §6, §7, §8, §9, §10, §11
The chosen scoring system is • 0: no ataxia; • 1: doubful; • 2: obvious calmness and quiet; • 3 pronounced ataxia; • prior to as well as after treatment.
The percentage of sedation is determined according to the formula: %of sedation = arithmetic mean/3 × 100 [formula] […]

[6] = molecular target: T2, transfected human CB1 receptors (Homo sapiens, UniProt P21554); experiment: In-vitro determination of affinity to CB1 receptor (radioligand [3H]-CP55940); type: binding
T2 construct: purchased Receptor Biology, Inc
Protocol: as §12, §13

T1 sequence (P34972 whole entry): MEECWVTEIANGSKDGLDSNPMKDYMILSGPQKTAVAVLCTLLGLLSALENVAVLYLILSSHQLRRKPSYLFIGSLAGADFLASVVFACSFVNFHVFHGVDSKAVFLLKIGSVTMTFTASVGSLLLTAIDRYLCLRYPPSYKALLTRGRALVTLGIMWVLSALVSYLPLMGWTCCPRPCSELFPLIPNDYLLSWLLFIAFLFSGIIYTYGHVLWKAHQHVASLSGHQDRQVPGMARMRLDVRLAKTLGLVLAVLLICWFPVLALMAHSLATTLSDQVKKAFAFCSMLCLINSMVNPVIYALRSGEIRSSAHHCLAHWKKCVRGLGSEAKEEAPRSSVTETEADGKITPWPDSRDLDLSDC
T2 sequence (P21554 whole entry): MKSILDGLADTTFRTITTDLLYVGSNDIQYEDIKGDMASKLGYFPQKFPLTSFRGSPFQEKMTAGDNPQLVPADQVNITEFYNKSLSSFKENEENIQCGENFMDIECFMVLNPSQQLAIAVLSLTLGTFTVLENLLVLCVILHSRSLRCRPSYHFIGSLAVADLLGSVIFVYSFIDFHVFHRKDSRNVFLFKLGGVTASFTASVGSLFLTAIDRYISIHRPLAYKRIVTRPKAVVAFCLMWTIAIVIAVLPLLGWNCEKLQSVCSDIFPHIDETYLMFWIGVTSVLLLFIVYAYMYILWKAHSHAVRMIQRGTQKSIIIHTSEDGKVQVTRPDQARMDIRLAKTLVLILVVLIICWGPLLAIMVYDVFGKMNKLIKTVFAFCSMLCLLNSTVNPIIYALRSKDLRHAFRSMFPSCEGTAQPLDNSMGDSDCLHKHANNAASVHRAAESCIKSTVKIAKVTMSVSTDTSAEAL

| SMILES | Triglicerides, whole blood levels (mg/dl) ([1]; N.S. compared with Group I) | Relative levels ([1]; triglicerides relative to Group I (standard diet = 100%)) | TG (triglyceride) levels [2] | Antagonistic Effect A: Hot-Plate test (cannabinoid receptors [3]) | Antagonistic Effect B: Hypothermia (cannabinoid receptors [3]) | Antagonistic Effect C: Catalepsy (cannabinoid receptors [3]) | Antagonistic Effect D: Sedation (cannabinoid receptors [3]) | Ki [4] | Agonistic effect A: Hot-Plate test (cannabinoid receptors [5]) | Agonistic effect B: Hypothermia (cannabinoid receptors [5]) | Agonistic effect C: Catalepsy (cannabinoid receptors [5]) | Agonistic effect D: Sedation (cannabinoid receptors [5]) | Ki [6] |
| --- | --- | --- | --- | --- | --- | --- | --- | --- | --- | --- | --- | --- | --- |
| O=C(O)C1=NN(c2ccc(Cl)cc2Cl)C(c2ccc(Cl)cc2)C1 (stereo not shown) [Example 0, 5-(4-chlorophenyl)-1-(2,4-dichlorophenyl)-4,5-dihydro-pyrazole-3-carboxylic acid] | 67.5 (N.S.) mg/dl | 110.6% | 0.80 ± 0.07 mmol/L |  |  |  |  |  |  |  |  |  |  |
| O=C(C1=NN(c2ccc(Cl)cc2Cl)C(c2ccc(Cl)cc2)C1)N1CCCCC1 (stereo not shown) [Example 5, [5-(4-Chloro-phenyl)-1-(2,4-dichloro-phenyl)-4,5-dihydro-1H-pyrazol-3-yl]-piperidin-1-yl-methanone] |  |  |  | 50 | 40 | 20 | 20 | ~1000 nM | 0 | 50 | 0 | 0 |  |
| O=C(NN1CCCCC1)C1=NN(c2ccc(Cl)cc2Cl)C(c2ccc(Cl)cc2)C1 (stereo not shown) [Example 1, N-piperidinyl-5-(4-chlorophenyl)-1-(2,4-dichlorophenyl)-4,5-dihydro-1H-pyrazole-3-carboxamide] |  |  |  | 74 | 100 | 100 | 100 | > 1000 nM | 0 | 0 | 0 | 0 | < 25 nM |
